Reference: patent US20230263822A1, “MODULATION OF FACTOR 11 EXPRESSION” (Ionis Pharmaceuticals, Inc., priority 2008, published 2023)
Strand notation (5' to 3'): a small letter for the sugar, then the base; units joined by * are phosphorothioate-linked, units joined directly phosphodiester-linked; [ ] holds rarer units or linkages, { } end groups; capitals alone tell only the bases. e = 2'-O-(2-methoxyethyl) (MOE); [5mC] = 5-methylcytosine; d = 2'-deoxy (DNA)

The substances below were run on human Factor 11 mRNA (assay: Antisense inhibition of human Factor 11 in HepG2 cells by microwalk gapmers, lipofectin, 75 nM (Example 3)). Settings: HepG2, lipofectin, ~24 h, gapmers targeted to nucleobases 656 to 704 of SEQ ID NO: 1.
Format: cell-based
Description: These gapmers were designed by creating gapmers shifted slightly upstream and downstream (i.e. “microwalk”) of the original gapmers from Table 3. Gapmers were also created with various motifs, e.g. 5-10-5 MOE, 3-14-3 MOE, and 2-13-5 MOE. These gapmers were tested in vitro. Cultured HepG2 cells at a density of 10,000 cells per well were transfected using lipofectin reagent with 75 nM antisense oligonucleotide. After a treatment period of approximately 24 hours, RNA was isolated from the cells and Factor 11 mRNA levels were measured by quantitative real-time PCR. Factor 11 mRNA levels were adjusted according to total RNA content, as measured by RIBOGREEN. Results are presented as percent inhibition of Factor 11, relative to untreated control cells.
The chimeric antisense oligonucleotides in Table 4 were designed as 5-10-5 MOE, 3-14-3 MOE, and 2-13-5 MOE gapmers. The first listed gapmers in Table 4 are the original gapmers (see Table 3) from which the remaining gapmers were designed via microwalk and are designated by an asterisk. The 5-10-5 gapmers are 20 nucleotides in length, wherein the central gap segment is comprised of 10 2′-deoxynucleotides and is flanked on both sides (in the 5′ and 3′ directions) by wings comprising 5 nucleotides each. The 3-14-3 gapmers are 20 nucleotides in length, wherein the central gap segment is comprised of 14 2′-deoxynucleotides and is flanked on both sides (in the 5′ and 3′ directions) by wings comprising 3 nucleotides each. The 2-13-5 gapmers are 20 nucleotides in length, wherein the central gap segment is comprised of 13 2′-deoxynucleotides. The central gap is flanked on the 5′ end with a wing comprising 2 nucleotides and on the 3′ end with a wing comprising 5 nucleotides. For each of the motifs (5-10-5, 3-14-3, and 2-13-5), each nucleotide in the 5′ wing segment and each nucleotide in the 3′ wing segment has a 2′-MOE modification. The internucleoside linkages throughout each gapmer are phosphorothioate (P=S) linkages. All cytidine residues throughout each gapmer are 5-methyl cytidines. “Target start site” indicates the 5′-most nucleotide to which the gapmer is targeted. “Target stop site” indicates the 3′-most nucleotide to which the gapmer is targeted. Each gapmer listed in Table 4 is targeted to SEQ ID NO: 1 (GENBANK Accession No. NM_000128.3).

“416889 (antisense e[5mC]*eT*eT*d[5mC]*dA*dT*dG*dT*d[5mC]*dT*dA*dG*dG*dT*d[5mC]*d[5mC]*dA*e[5mC]*eA*eT) [compound 416889]” was tested. Which “% inhibition” value did it give?
The value was 60%.

How did the “% inhibition” value turn out when “416890 (antisense e[5mC]*e[5mC]*eT*dT*d[5mC]*dA*dT*dG*dT*d[5mC]*dT*dA*dG*dG*dT*d[5mC]*d[5mC]*eA*e[5mC]*eA) [compound 416890]” was run?
The value was 87%.

Which “% inhibition” value does the source give for “416891 (antisense e[5mC]*e[5mC]*e[5mC]*dT*dT*d[5mC]*dA*dT*dG*dT*d[5mC]*dT*dA*dG*dG*dT*d[5mC]*e[5mC]*eA*e[5mC]) [compound 416891]” here?
The value was 81%.

“416893 (antisense eT*eG*e[5mC]*d[5mC]*d[5mC]*dT*dT*d[5mC]*dA*dT*dG*dT*d[5mC]*dT*dA*dG*dG*eT*e[5mC]*e[5mC]) [compound 416893]” was tested. Which “% inhibition” value did it give?
Its value is 90%.

How did the “% inhibition” value turn out when “416894 (antisense eA*eT*eG*d[5mC]*d[5mC]*d[5mC]*dT*dT*d[5mC]*dA*dT*dG*dT*d[5mC]*dT*dA*dG*eG*eT*e[5mC]) [compound 416894]” was run?
Its value is 85%.

For “416897 (antisense eT*eT*eT*dA*dT*dG*d[5mC]*d[5mC]*d[5mC]*dT*dT*d[5mC]*dA*dT*dG*dT*d[5mC]*eT*eA*eG) [compound 416897]”, which “% inhibition” value is on record?
The value was 66%.

Same assay, conditions: HepG2 cells, lipofectin, gapmers targeted to nucleobases 738 to 762 of SEQ ID NO: 1

“416898 (antisense e[5mC]*e[5mC]*eG*dT*dG*d[5mC]*dA*dT*d[5mC]*dT*dT*dT*d[5mC]*dT*dT*dG*dG*e[5mC]*eA*eT) [compound 416898]” was tested. Which “% inhibition” value did it give?
Its value is 88%.

“416899 (antisense eT*e[5mC]*e[5mC]*dG*dT*dG*d[5mC]*dA*dT*d[5mC]*dT*dT*dT*d[5mC]*dT*dT*dG*eG*e[5mC]*eA) [compound 416899]” was tested. Which “% inhibition” value did it give?
Its value is 86%.

For “416900 (antisense eA*eT*e[5mC]*d[5mC]*dG*dT*dG*d[5mC]*dA*dT*d[5mC]*dT*dT*dT*d[5mC]*dT*dT*eG*eG*e[5mC]) [compound 416900]”, which “% inhibition” value is on record?
The value was 90%.

How did the “% inhibition” value turn out when “416901 (antisense e[5mC]*eA*eT*d[5mC]*d[5mC]*dG*dT*dG*d[5mC]*dA*dT*d[5mC]*dT*dT*dT*d[5mC]*dT*eT*eG*eG) [compound 416901]” was run?
Its value is 65%.

Which “% inhibition” value does the source give for “416902 (antisense eT*e[5mC]*eA*dT*d[5mC]*d[5mC]*dG*dT*dG*d[5mC]*dA*dT*d[5mC]*dT*dT*dT*d[5mC]*eT*eT*eG) [compound 416902]” here?
Its value is 46%.

Which “% inhibition” value does the source give for “416903 (antisense eG*eT*e[5mC]*dA*dT*d[5mC]*d[5mC]*dG*dT*dG*d[5mC]*dA*dT*d[5mC]*dT*dT*dT*e[5mC]*eT*eT) [compound 416903]” here?
The value was 88%.

Same assay, conditions: HepG2 cells, lipofectin, gapmers targeted to nucleobases 1018 to 1042 of SEQ ID NO: 1

How did the “% inhibition” value turn out when “416904 (antisense e[5mC]*e[5mC]*eG*dG*dG*dA*dT*dG*dA*dT*dG*dA*dG*dT*dG*d[5mC]*dA*eG*eA*eT) [compound 416904]” was run?
The value was 90%.

Which “% inhibition” value does the source give for “416905 (antisense eA*e[5mC]*e[5mC]*dG*dG*dG*dA*dT*dG*dA*dT*dG*dA*dG*dT*dG*d[5mC]*eA*eG*eA) [compound 416905]” here?
Its value is 85%.

With “416906 (antisense eA*eA*e[5mC]*d[5mC]*dG*dG*dG*dA*dT*dG*dA*dT*dG*dA*dG*dT*dG*e[5mC]*eA*eG) [compound 416906]” as the substance, how does the “% inhibition” value read?
The value was 88%.

For “416907 (antisense e[5mC]*eA*eA*d[5mC]*d[5mC]*dG*dG*dG*dA*dT*dG*dA*dT*dG*dA*dG*dT*eG*e[5mC]*eA) [compound 416907]”, which “% inhibition” value is on record?
The value was 90%.

Same assay, conditions: HepG2 cells, lipofectin, gapmers targeted to nucleobases 1062 to 1091 of SEQ ID NO: 1

How did the “% inhibition” value turn out when “416909 (antisense eA*eT*eT*d[5mC]*dT*dT*dT*dG*dG*dG*d[5mC]*d[5mC]*dA*dT*dT*d[5mC]*d[5mC]*eT*eG*eG) [compound 416909]” was run?
Its value is 78%.

With “416910 (antisense eG*eA*eT*dT*d[5mC]*dT*dT*dT*dG*dG*dG*d[5mC]*d[5mC]*dA*dT*dT*d[5mC]*e[5mC]*eT*eG) [compound 416910]” as the substance, how does the “% inhibition” value read?
The value was 90%.

“416911 (antisense eA*eG*eA*dT*dT*d[5mC]*dT*dT*dT*dG*dG*dG*d[5mC]*d[5mC]*dA*dT*dT*e[5mC]*e[5mC]*eT) [compound 416911]” was tested. Which “% inhibition” value did it give?
The value was 90%.
